{"source": "patent US11192869B2", "about": "“CFTR regulators and methods of use thereof” (THE REGENTS OF THE UNIVERSITY OF CALIFORNIA, priority 2015, dated 2021)", "key": {"[1]": {"target": "T1, human wild-type CFTR (Homo sapiens, UniProt P13569)", "T1 construct": "expressed in transfected cells", "T1 sequence (P13569 whole entry)": "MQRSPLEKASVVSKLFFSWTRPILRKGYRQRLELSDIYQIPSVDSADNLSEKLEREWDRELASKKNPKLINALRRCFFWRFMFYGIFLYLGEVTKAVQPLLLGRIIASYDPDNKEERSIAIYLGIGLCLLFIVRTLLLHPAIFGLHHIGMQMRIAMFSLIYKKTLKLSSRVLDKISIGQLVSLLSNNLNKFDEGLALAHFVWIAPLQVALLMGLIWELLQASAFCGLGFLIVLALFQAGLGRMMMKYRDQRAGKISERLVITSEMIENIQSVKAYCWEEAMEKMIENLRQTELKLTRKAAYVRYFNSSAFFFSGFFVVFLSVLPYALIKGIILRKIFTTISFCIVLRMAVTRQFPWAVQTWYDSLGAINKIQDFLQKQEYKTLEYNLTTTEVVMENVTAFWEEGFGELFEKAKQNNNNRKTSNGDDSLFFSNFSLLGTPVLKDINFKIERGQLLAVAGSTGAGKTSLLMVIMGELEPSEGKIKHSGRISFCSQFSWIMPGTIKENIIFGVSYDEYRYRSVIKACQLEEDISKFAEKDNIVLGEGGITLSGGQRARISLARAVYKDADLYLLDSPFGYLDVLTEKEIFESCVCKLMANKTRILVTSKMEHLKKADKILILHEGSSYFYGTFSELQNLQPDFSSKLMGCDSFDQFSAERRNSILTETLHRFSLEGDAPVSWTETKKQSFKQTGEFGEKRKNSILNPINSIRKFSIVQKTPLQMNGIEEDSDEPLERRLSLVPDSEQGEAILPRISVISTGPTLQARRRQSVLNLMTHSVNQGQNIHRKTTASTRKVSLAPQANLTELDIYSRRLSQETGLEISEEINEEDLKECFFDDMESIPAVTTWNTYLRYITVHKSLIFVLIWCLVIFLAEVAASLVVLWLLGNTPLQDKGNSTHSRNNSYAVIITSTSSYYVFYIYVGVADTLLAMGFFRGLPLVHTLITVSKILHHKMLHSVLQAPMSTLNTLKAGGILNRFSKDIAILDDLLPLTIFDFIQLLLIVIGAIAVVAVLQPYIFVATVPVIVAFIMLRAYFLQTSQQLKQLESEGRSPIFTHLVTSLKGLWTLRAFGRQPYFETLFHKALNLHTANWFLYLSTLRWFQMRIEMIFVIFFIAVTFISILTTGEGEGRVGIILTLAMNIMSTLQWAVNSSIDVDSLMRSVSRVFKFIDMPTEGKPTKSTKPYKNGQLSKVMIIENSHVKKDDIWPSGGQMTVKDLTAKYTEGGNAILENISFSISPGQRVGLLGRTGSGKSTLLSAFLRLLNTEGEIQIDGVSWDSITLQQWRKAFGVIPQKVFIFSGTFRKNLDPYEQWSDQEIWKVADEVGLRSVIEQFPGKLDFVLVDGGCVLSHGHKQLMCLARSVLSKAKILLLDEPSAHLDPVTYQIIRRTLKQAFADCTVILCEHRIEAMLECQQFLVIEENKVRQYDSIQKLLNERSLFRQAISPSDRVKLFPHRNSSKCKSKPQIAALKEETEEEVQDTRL", "assay": "Short-circuit current in FRT cells expressing wild-type human CFTR", "format": "cell-based", "conditions": "for CFTR activation (in words): short-circuit current", "protocol": "Short-circuit current measurement. Short-circuit current was measured in FRT cells stably expressing wild-type human CFTR cultured on porous filters as described. The basolateral solution contained 130 mM NaCl, 2.7 mM KCl, 1.5 mM KH2PO4, 1 mM CaCl2, 0.5 mM MgCl2, 10 mM glucose, and 10 mM Na-HEPES (pH 7.3, 37° C.). In the apical solution 65 mM NaCl was replaced by Na gluconate, and CaCl2 was increased to 2 mM, and the basolateral membrane was permeabilized with 250 μg/ml amphotericin B. Short-circuit current was measured in freshly harvested adult mouse colon at 37° C. using symmetrical Krebs-bicarbonate buffer.\nShort-circuit current. Fischer rat thyroid (FRT) cells stably expressing wild-type human CFTR were cultured on Snapwell inserts (Corning Costar, Corning N.Y., USA) for short-circuit current (Isc) measurements. After 6-9 days in culture, when the transepithelial resistance was >1000 Ω/cm^2, the inserts were mounted in an Ussing chamber system (World Precision Instruments, Sarasota, Fla., USA). The basolateral solution contained 130 mM NaCl, 2.7 mM KCl, 1.5 mM KH2PO4, 1 mM CaCl2, 0.5 mM MgCl2, 10 mM glucose, and 10 mM Na-HEPES (pH 7.3). In the apical bathing solution, 65 mM NaCl was replaced by Na gluconate, and CaCl2 was increased to 2 mM. Both solutions were bubbled with air and maintained at 37° C. The basolateral membrane was permeabilized with 250 μg/ml amphotericin B (26, 27). Hemichambers were connected to a DVC-1000 voltage clamp via Ag/AgCl electrodes and 3 M KCl agar bridges for Isc recording."}, "[2]": {"assay": "Ocular toxicity after chronic topical dosing (slit-lamp, lissamine green)", "format": "in vivo", "conditions": "chronically treated mice", "protocol": "(§1) Lissamine green staining. To assess corneal epithelial disruption, 5 μL of lissamine green (LG) dye (1%) was applied to the ocular surface of isofluorane-anesthetized mice. Photographs of the eye were taken using a Nikon Digital camera adapted to an Olympus Zoom Stereo Microscope (Olympus, Center Valley, Pa., USA). Each corneal quadrant was scored on a 3-point scale by one blinded, trained observer, with the extent of staining in each quadrant classified as: 0, no staining; 1, sporadic (involving <25% of the total surface) staining; grade 2, diffuse punctate staining (25-75%); and grade 3, coalesced punctate staining (>75%). The total grade is reported as the sum of scores from all four quadrants, ranging from 0 to 12."}, "[3]": {"conditions": "mouse, in vivo"}, "[4]": {"test_system": "mouse model of aqueous-deficient dry eye produced by lacrimal gland excision", "assay": "Lacrimal gland excision (LGE) mouse model of dry eye", "format": "in vivo", "conditions": "0.1 nmol topically three times daily", "protocol": "Tear secretion. To measure unstimulated tear production, phenol red threads (Zone-Quick, Oasis Medical, Glendora, Calif., USA) were placed for 10 s in the lateral canthi of isofluorane-anesthetized mice using jewelers' forceps. Tear volume was measured as the length of thread wetting, as visualized under a dissecting microscope. Serial measurements were used to evaluate compound pharmacodynamics after application of 2-μL drops of compound formulations (50-100 μM compound in PBS containing 0.5% polysorbate and 0.5% DMSO) comparing to vehicle.\nas §1\nMouse model of dry eye produced by lacrimal gland excision. […]"}, "[5]": {"test_system": "tear secretion", "assay": "Tear secretion (phenol red thread)", "format": "in vivo, mouse", "conditions": "for increase of tear fluid secretion: single topical dose, for (at least) four hours"}, "[6]": {"conditions": "mouse, in vivo, topical or ocular"}, "[7]": {"assay": "Tear film pharmacokinetics by LC/MS", "conditions": "from quantity recovered vs EC50"}, "[8]": {"test_system": "ocular surface", "assay": "Ocular surface potential difference measurements", "format": "in vivo, mouse", "conditions": "wild-type mice, 1-10 μM", "protocol": "Ocular surface potential difference measurements. Open-circuit transepithelial PD were measured continuously in anesthetized mice in response to serial perfusions of different solutions over the ocular surface, as described (21). Mice were anesthetized with Avertin (2,2,2-tribromoethanol, 125 mg/kg intraperitoneal, Sigma-Aldrich, St. Louis, Mo., USA), and core temperature was maintained at 37° C. using a heating pad. Eyes were oriented with the cornea and conjunctiva facing upward and exposed by retracting the eyelid with cross-action forceps. Solutions were isosmolar (320±10 mOsM; compositions provided in ref. 21) and contained 10μ[…] □ indomethacin to prevent CFTR activation by prostaglandins. The ocular surface was perfused at 6 mL/min through plastic tubing using a multireservoir gravity pinch-valve system (ALA Scientific, Westbury, N.Y., USA) and variable-flow peristaltic pump (medium flow model; Fisher Scientific, Fair Lawn, N.J., USA). A probe catheter was fixed 1 mm above the cornea using a micropositioner and a suction cannula was positioned 3 mm from the orbit. The measuring electrode was in contact to the perfusion catheter and connected to a high-impedance voltmeter (IsoMilivolt Meter; WPI). The reference electrode was grounded via a winged 21-gauge needle filled with isosmolar saline, and inserted subcutaneously in the abdomen. Measuring and reference electrodes consisted of Ag/AgCl with 3 M KCl agar bridges.\nOcular surface potential difference measurements. Open-circuit transepithelial PD were measured continuously in anesthetized mice in response to serial perfusions of different solutions over the ocular surface, as described (21). Mice were anesthetized with Avertin (2,2,2-tribromoethanol, 125 mg/kg intraperitoneal, Sigma-Aldrich, St. Louis, Mo., USA), and core temperature was maintained at 37° C. using a heating pad. Eyes were oriented with the cornea and conjunctiva facing upward and exposed by retracting the eyelid with cross-action forceps. […]"}, "[9]": {"conditions": "juvenile rats; cited from earlier work"}, "[10]": {"test_system": "loperamide-induced mouse model of constipation", "assay": "Loperamide-induced mouse model of constipation"}, "[11]": {"conditions": "cited from earlier work"}}, "note": "Entries after “also recorded” stand apart in the source; their conditions may differ. Where two headings read alike, the source gives them in different places. Where a SMILES comes first, the peptide text is derived from it. Bridges are numbered along the chain shown (N, C = ends).", "data": [{"compound": "CCN(CC)c1nc(Nc2ccccc2)nc(OC(C(F)(F)F)C(F)(F)F)n1", "note": "[CFTRact-K089]", "values": [{"measurement": "CFTR activation", "setting": "[1]; Isc", "result": "~50", "unit": "% Vmax"}, {"measurement": "CFTR activation (in words)", "setting": "[1]; wild-type CFTR", "result": "fully activated CFTR"}, {"measurement": "LG staining, corneal or conjunctival epithelial disruption", "setting": "[2]", "result": "no corneal or conjunctival epithelial disruption"}, {"measurement": "ocular toxicity by slit-lamp evaluation", "setting": "[2]", "result": "no signs of ocular toxicity"}, {"measurement": "systemic absorption (in words)", "setting": "[3]", "result": "without detectable systemic absorption"}, {"measurement": "corneal / ocular surface epithelial disruption after LGE", "setting": "[4]", "result": "prevents corneal epithelial disruption; also recorded: fully prevented; also recorded: prevented ocular surface epithelial disruption"}, {"measurement": "tear secretion / tear volume after LGE", "setting": "[4]", "result": "restored tear secretion"}, {"measurement": "tear fluid secretion in CF mice", "setting": "[5]; CF mice", "result": "no effect"}, {"measurement": "increase of tear fluid secretion", "setting": "[5]", "result": "doubled; also recorded: approximately two-fold"}, {"measurement": "tear film bioavailability (in words)", "setting": "[6]", "result": "sustained tear film bioavailability"}, {"measurement": "duration of therapeutic levels in tear fluid", "setting": "[7]", "result": "predicts therapeutic levels for at least six hours"}, {"measurement": "change in ocular surface PD (in words)", "setting": "[8]", "result": "large hyperpolarizations"}]}, {"compound": "CC(C)Cn1c(=O)n(C)c(=O)c2[nH]cnc21", "note": "[IBMX, 3-isobutyl-1-methylxanthine, reference compound]", "values": [{"measurement": "persistence of tear secretion effect", "setting": "[5]; after 2 hours", "result": "transient and undetectable after 2 hours"}]}, {"compound": "CC(C)(C)c1cc(C(C)(C)C)c(NC(=O)c2c[nH]c3ccccc3c2=O)cc1O", "note": "[VX-770, reference compound]", "values": [{"measurement": "CFTR activation (in words)", "setting": "[1]; wild-type CFTR", "result": "relatively little activity; also recorded: relatively weak activity"}, {"measurement": "Emax", "setting": "[1]; wild-type CFTR, read-out: maximal activation of CFTR", "result": 15, "unit": "%"}, {"measurement": "increase of tear fluid secretion", "setting": "[5]", "result": "little tear secretion"}, {"measurement": "adverse finding on chronic application", "setting": "[9]", "result": "cataracts"}, {"measurement": "change in ocular surface PD (in words)", "setting": "[8]", "result": "minimal changes"}]}, {"compound": "Cn1c(=O)c(-c2cc([N+](=O)[O-])ccc2N)nc2ccccc21", "note": "[inactive chemical analog of CFTRact-J027, reference compound]", "values": [{"measurement": "efficacy of inactive analog in wildtype mice", "setting": "[10]; loperamide model, wildtype mice", "result": "nor was an inactive chemical analog of CFTRact-J027 effective"}]}, {"compound": "C[C@@H]1NC(=O)[C@@H]2CCCN2C(=O)[C@H](CC(N)=O)NC(=O)[C@@H]2CSSC[C@H](N)C(=O)N[C@H]3CSSC[C@H](NC1=O)C(=O)N[C@@H]([C@@H](C)O)C(=O)NCC(=O)N[C@H](C(=O)N[C@@H](Cc1ccc(O)cc1)C(=O)O)CSSC[C@H](NC(=O)[C@H](Cc1ccc(O)cc1)NC(=O)[C@H](CCC(=O)O)NC3=O)C(=O)N2", "note": "[linaclotide, reference compound] (H-CCEYCCNPACTGCY-OH; disulfide 1-6, 2-10, 5-13)", "values": [{"measurement": "stool output, % of the maximal CFTRact-J027 response", "setting": "[10]; oral 0.5 mg/kg, loperamide-treated mice", "result": 35, "unit": "%"}, {"measurement": "patients in whom effective", "setting": "[11]; chronic constipation patients", "result": "~20", "unit": "%"}]}, {"compound": "CCCCC(F)(F)[C@@]1(O)CC[C@H]2[C@@H](CC(=O)[C@@H]2CCCCCCC(=O)O)O1", "note": "[lubiprostone]", "values": [{"measurement": "patients in whom effective", "setting": "[11]; IBS-C patients", "result": "~13", "unit": "%"}]}, {"compound": "cholera toxin [reference compound]", "values": [{"measurement": "persistence of tear secretion effect", "setting": "[5]; mouse, in vivo", "result": "transient and undetectable after 2 hours"}]}]}
